Results published in article PMC10041525, “New Dual Inhibitors of Bacterial Topoisomerases with Broad-Spectrum Antibacterial Activity and In Vivo Efficacy against Vancomycin-Intermediate Staphylococcus aureus” (Journal of Medicinal Chemistry, 2023).
Values after ≈ are worked out from the molar mass of the structure shown. Where two headings read alike, the source gives them in different places.

How the values were obtained:
[1] = molecular target: T1, DNA gyrase from E. coli (Escherichia coli, UniProt P0AES6); assay: supercoiling HTS plate assay; type: biochemical; conditions: IC50 [nM] E. coli DNA gyrase
T1 construct: purchased Inspiralis
Experimental: (§1) All compounds were tested for their inhibitory activities against DNA gyrase and topo IV from E. coli in supercoiling and relaxation high-throughput plate assays, respectively. Our new series of inhibitors were then tested against a panel of Gram-positive and Gram-negative bacteria.
(§2) Seven concentrations of the inhibitors were used to determine IC50 values which were then calculated with GraphPad Prism 6.0 software. Three independent measurements were performed to determine IC50 values, and mean values are reported as the final result.

[2] = molecular target: T2, topo IV from E. coli (Escherichia coli, UniProt P20083); assay: relaxation HTS plate assay; type: biochemical
T2 construct: purchased Inspiralis
T2 sequence (P0AFI2 whole entry): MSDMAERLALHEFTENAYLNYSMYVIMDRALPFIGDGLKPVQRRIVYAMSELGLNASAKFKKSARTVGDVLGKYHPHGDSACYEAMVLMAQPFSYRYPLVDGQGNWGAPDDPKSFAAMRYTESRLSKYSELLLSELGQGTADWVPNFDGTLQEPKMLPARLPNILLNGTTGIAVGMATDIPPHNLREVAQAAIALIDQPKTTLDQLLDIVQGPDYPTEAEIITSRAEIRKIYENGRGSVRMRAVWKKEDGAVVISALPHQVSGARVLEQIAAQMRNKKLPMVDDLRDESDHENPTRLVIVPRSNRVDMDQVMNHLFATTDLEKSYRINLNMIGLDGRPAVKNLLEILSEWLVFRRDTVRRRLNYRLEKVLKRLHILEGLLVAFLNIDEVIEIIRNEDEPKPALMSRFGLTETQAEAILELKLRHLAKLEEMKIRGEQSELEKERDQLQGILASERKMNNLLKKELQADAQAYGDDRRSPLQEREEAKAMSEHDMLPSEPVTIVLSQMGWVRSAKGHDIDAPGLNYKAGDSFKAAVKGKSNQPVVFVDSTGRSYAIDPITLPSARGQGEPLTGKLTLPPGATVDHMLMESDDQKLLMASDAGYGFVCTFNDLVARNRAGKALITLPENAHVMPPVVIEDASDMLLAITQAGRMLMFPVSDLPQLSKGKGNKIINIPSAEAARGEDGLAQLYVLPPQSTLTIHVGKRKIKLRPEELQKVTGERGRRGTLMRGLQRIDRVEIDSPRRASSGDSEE
T2 sequence (P20083 whole entry): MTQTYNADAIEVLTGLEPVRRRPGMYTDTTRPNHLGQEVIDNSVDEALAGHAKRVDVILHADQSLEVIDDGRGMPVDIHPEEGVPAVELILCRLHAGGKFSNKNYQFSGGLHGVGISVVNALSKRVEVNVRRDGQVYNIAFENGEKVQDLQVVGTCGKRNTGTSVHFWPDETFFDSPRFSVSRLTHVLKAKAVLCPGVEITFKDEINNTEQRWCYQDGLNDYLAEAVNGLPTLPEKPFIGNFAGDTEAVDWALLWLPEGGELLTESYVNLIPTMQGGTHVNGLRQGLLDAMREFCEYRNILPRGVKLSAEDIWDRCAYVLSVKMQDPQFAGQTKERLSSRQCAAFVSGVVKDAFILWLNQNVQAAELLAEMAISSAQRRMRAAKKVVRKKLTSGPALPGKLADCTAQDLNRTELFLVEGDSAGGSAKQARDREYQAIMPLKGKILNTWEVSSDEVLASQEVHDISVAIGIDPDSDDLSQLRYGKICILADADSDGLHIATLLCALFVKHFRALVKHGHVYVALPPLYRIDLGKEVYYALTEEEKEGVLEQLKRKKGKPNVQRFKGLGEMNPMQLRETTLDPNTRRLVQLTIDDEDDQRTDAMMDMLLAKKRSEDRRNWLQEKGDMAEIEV
Experimental: as §1, §2

[3] = tested on: A. baumannii ATCC 17978; assay: MIC broth microdilution (CLSI); type: cell-based; conditions: Acinetobacter baumannii, ATCC17978
Experimental: (§3) Cation-adjusted Mueller Hinton broth 2 (MHBII) was used for bacterial growth under standard laboratory conditions and for antimicrobial susceptibility tests. MHBII broth was prepared by dissolving 22 g of MHBII powder [containing beef extract (3 g), acid hydrolysate of casein (17.5 g), and starch (1.5 g); Becton Dickinson and Co.] in 1 L of water. To prepare MHBII agar, 14 g of agar (Bacto; Molar Chemicals) was added to 1 L of broth.
(§4) Bacterial strains were inoculated onto MHBII agar plates and grown overnight at 37 °C. Next, three individual colonies from each strain were inoculated into 1 mL of MHBII medium and propagated at 37 °C overnight, with agitation at 250 rpm. For Enterococcus sp., the cells were plated in brain–heart infusion [(BHI) medium] agar plates, and BHI broth was used to determine the MICs. […] Following the dilutions, each well was seeded with 5 × 10^4 bacterial cells (in 100 μL final volume). Each measurement was performed in three parallel replicates, and to avoid possible edge effects in the microwell plates, the outside rows (A, H) were filled with sterile medium. Following the inoculations, the plates were covered with the lids and wrapped in polyethylene plastic bags, to minimize evaporation but to allow O2 transfer. […] After incubation, the OD600 of each well was measured using a microplate reader (Synergy 2; Biotek).

[4] = tested on: S. aureus ATCC 29213; assay: MIC broth microdilution (CLSI); type: cell-based; conditions: Staphylococcus aureus, ATCC29213
Experimental: as §3, §4

[5] = tested on: Enterococcus faecalis ATCC 29212; assay: MIC broth microdilution (CLSI); type: cell-based, E. faecalis; conditions: Enterococcus faecalis, ATCC29212; read-out: MIC
Experimental: as §3, with “MICs (Tables 1 and S1–S3) were determined with a standard serial broth microdilution technique according to Clinical and Laboratory Standards Institute (CLSI) guidelines.[45] Cation-adjusted” for “Cation-adjusted”
(§5) Bacterial strains were inoculated onto MHBII agar plates and grown overnight at 37 °C. Next, three individual colonies from each strain were inoculated into 1 mL of MHBII medium and propagated at 37 °C overnight, with agitation at 250 rpm. For Enterococcus sp., the cells were plated in brain–heart infusion [(BHI) medium] agar plates, and BHI broth was used to determine the MICs. […] The highest final DMSO concentration in the experiments was 0.64% (in the case of the 64 μg/mL concentration of the inhibitor). Following the dilutions, each well was seeded with 5 × 10^4 bacterial cells (in 100 μL final volume). Each measurement was performed in three parallel replicates, and to avoid possible edge effects in the microwell plates, the outside rows (A, H) were filled with sterile medium. Following the inoculations, the plates were covered with the lids and wrapped in polyethylene plastic bags, to minimize evaporation but to allow O2 transfer. The plates were incubated at 37 °C under continuous shaking at 150 rpm for 18 h. After incubation, the OD600 of each well was measured using a microplate reader (Synergy 2; Biotek). The MICs were defined as the antibiotic concentrations which inhibited the growth of the bacterial cultures; that is, the drug concentration where the average OD600 increment of the three technical replicates was below 1.5-fold the background OD increment.

[6] = tested on: E. coli ATCC 25922; assay: MIC broth microdilution (CLSI); type: cell-based; conditions: Escherichia coli, ATCC25922; read-out: MIC
Experimental: as §3, with “MICs (Tables 1 and S1–S3) were determined with a standard serial broth microdilution technique according to Clinical and Laboratory Standards Institute (CLSI) guidelines.[45] Cation-adjusted” for “Cation-adjusted”
as §5

[7] = tested on: E. faecium ATCC 700221; assay: MIC broth microdilution (CLSI); type: cell-based
Experimental: as §3, with “MICs (Tables 1 and S1–S3) were determined with a standard serial broth microdilution technique according to Clinical and Laboratory Standards Institute (CLSI) guidelines.[45] Cation-adjusted” for “Cation-adjusted”
as §5

[8] = tested on: Enterobacter cloacae spp. cloacae ATCC 13047; assay: MIC broth microdilution (CLSI); type: cell-based; conditions: Enterobacter cloacae, ATCC13047; read-out: MIC
Experimental: as §3, with “MICs (Tables 1 and S1–S3) were determined with a standard serial broth microdilution technique according to Clinical and Laboratory Standards Institute (CLSI) guidelines.[45] Cation-adjusted” for “Cation-adjusted”
as §5

[9] = tested on: K. pneumoniae ATCC 10031; assay: MIC broth microdilution (CLSI); type: cell-based
Experimental: as §3, with “MICs (Tables 1 and S1–S3) were determined with a standard serial broth microdilution technique according to Clinical and Laboratory Standards Institute (CLSI) guidelines.[45] Cation-adjusted” for “Cation-adjusted”
as §5

[10] = tested on: P. aeruginosa ATCC 27853; assay: MIC broth microdilution (CLSI); type: cell-based; conditions: Pseudomonas aeruginosa, ATCC27853; read-out: MIC
Experimental: as §3, with “MICs (Tables 1 and S1–S3) were determined with a standard serial broth microdilution technique according to Clinical and Laboratory Standards Institute (CLSI) guidelines.[45] Cation-adjusted” for “Cation-adjusted”
as §5

[11] = tested on: S. aureus (MRSA) ATCC 43300; assay: MIC broth microdilution (CLSI); type: cell-based; conditions: Staphylococcus aureus
Experimental: as §3, with “MICs (Tables 1 and S1–S3) were determined with a standard serial broth microdilution technique according to Clinical and Laboratory Standards Institute (CLSI) guidelines.[45] Cation-adjusted” for “Cation-adjusted”
as §5

[12] = tested on: S. aureus (VISA) ATCC 700699; assay: MIC broth microdilution (CLSI); type: cell-based; conditions: Staphylococcus aureus; read-out: MIC
Experimental: as §3, with “MICs (Tables 1 and S1–S3) were determined with a standard serial broth microdilution technique according to Clinical and Laboratory Standards Institute (CLSI) guidelines.[45] Cation-adjusted” for “Cation-adjusted”
as §5

[13] = physchem; type: physicochemical; conditions: phosphate-buffered saline (PBS)
Experimental: For the PBS, 2.38 g of disodium hydrogen phosphate dodecahydrate, 0.19 g of potassium dihydrogen phosphate, and 8.0 g of sodium chloride were added to distilled water (900 mL), and the solution was mixed overnight. […] Samples were prepared by weighing the exact mass of solid compounds (about 1 mg), and then, the appropriate volume of PBS was added to reach the final concentration of ∼1 mg/mL. […] The supernatant was diluted 3× with a 1:1 mixture of 0.1% TFA in water and acetonitrile and analyzed by HPLC. For the 7-point calibration curves, concentrated stock solutions of the compounds were prepared at concentrations of 10 and 0.5 mM in DMSO, which were diluted with a 1:1 mixture of 0.1% TFA in water and acetonitrile to the desired final concentrations and analyzed by HPLC. Results are given in μM as an average value of two independent experiments. For details on calibration curves, concentrations, analytical method, and HPLC method, see the Supporting Information.
Thermodynamic solubility assay
To determine thermodynamic solubility of compounds in PBS, calibration curves for the assayed compounds were prepared using seven concentrations. First, DMSO stock solutions of compounds at 10 mM and 0.5 mM concentration were prepared and then diluted (0.1% TFA in […]
Quality control (QC) samples were diluted from stock solutions with a 1:1 mixture of 0.1% TFA in water and acetonitrile to final concentrations of 60 µM, 20 µM, and 2 µM (6 µM, 2 µM, and 0.2 µM for 7f or 0.6 µM, 0.2 µM, and 0.02 µM for 7g).
Analytical reversed-phase UHPLC analyses were performed on Thermo Scientific Dionex UltiMate 3000 modular system (Thermo Fisher Scientific Inc., MA, USA). Waters Acquity UPLC® HSS C18 SB column (2.1 × 50 mm, 1.8 μm; Waters, Milford, MA, USA) was used at T […]
Mobile phase consisted of 0.1% trifluoroacetic acid in ultrapure water (solvent A) and acetonitrile […]
The obtained data was processed in Chromeleon CDS software (Thermo Fisher Scientific Inc., […]
Analytical method was tested for accuracy, precision and linear rang. Accuracy was […]
(or 2 or 0.2) µM and 60 (or 6 or 0.6) µM) to their true values and expressed in (%). Values were […]
Method repeatability was determined by calculating the RSD from the separately prepared and analysed quality control samples (n = 3). […] Linearity of the […]
method (1 (or 0.1 or 0.01) µM to 100 (or 10 or 1) µM) was evaluated from the 7-point calibration […]
Solubility was determined in two independent experiments and results were calculated in […]

[14] = read-out: MIC [µg/mL] (A. baumannii ATCC 17978)
[15] = read-out: MIC [µg/mL](S. aureus ATCC 29213)
[16] = Enterococcus faecium, ATCC700221, read-out: MIC
[17] = Klebsiella pneumoniae, ATCC10031, read-out: MIC
[18] = read-out: MIC [µg/mL](S. aureus MRSA ATCC4330)
[19] = read-out: IC50 [nM] E. coli TopoIV

| Structure (SMILES) | IC50 [1] | IC50 ([2]; IC50) | IC50 ([2]; IC50 [nM] E. coli TopoIV) | MIC ([3]; read-out: MIC) | MIC [3, 14] | MIC ([4]; read-out: MIC) | MIC [4, 15] | MIC [5] | MIC [6] | MIC [7, 16] | MIC [8] | MIC [9, 17] | MIC [10] | MIC ([11]; read-out: MIC) | MIC [11, 18] | MIC [12] | IC50 [2, 19] | other results |
| --- | --- | --- | --- | --- | --- | --- | --- | --- | --- | --- | --- | --- | --- | --- | --- | --- | --- | --- |
| Cc1[nH]c(C(=O)Nc2nc3c(N4CC[C@H](N)C4)cc(C(=O)O)cc3s2)c(Cl)c1Cl.Cl [8a, (S)-1-(6-Carboxy-2-(3,4-dichloro-5-methyl-1H-pyrrole-2-carboxamido)benzo[d]thiazol-4-yl)pyrrolidin-3-aminium Chloride] | < 10 nM | < 100 nM | 38 ± 10 nM | > 32 µg/mL | > 32 µg/mL | 32 µg/mL | 32 µg/mL | 32 µg/mL | > 32 µg/mL | 32 µg/mL | > 32 µg/mL | 4 µg/mL | > 32 µg/mL | 16 µg/mL | 16 µg/mL | 8 µg/mL |  | MIC [9]: 4 µg/mL |
| Cc1[nH]c(C(=O)Nc2nc3c(N4CCC5(CC4)OCCO5)cc(C(=O)O)cc3s2)c(Cl)c1Cl [7r, 2-(3,4-Dichloro-5-methyl-1H-pyrrole-2-carboxamido)-4-(1,4-dioxa-8-azaspiro[4.5]decan-8-yl)benzo[d]thiazole-6-carboxylic Acid] | 17 ± 11 nM |  |  | 8 µg/mL | 8 µg/mL | < 0.0312 µg/mL | < 0.0312 µg/mL | < 0.0312 µg/mL | 4 µg/mL | < 0.0312 µg/mL | 32 µg/mL | 2 µg/mL | 8 µg/mL | < 0.0312 µg/mL | < 0.0312 µg/mL | < 0.0312 µg/mL |  | solubility thermodynamic at 24 h ([13]; pH 7.4, PBS pH 7.4, read-out: thermodynamic solubility, Experiment 1): 26.7 µM (≈ 13.7 µg/mL); solubility thermodynamic at 24 h ([13]; pH 7.4, PBS pH 7.4, read-out: thermodynamic solubility, Experiment 2): 27.3 µM (≈ 13.9 µg/mL); solubility thermodynamic at 24 h ([13]; pH 7.4, thermodynamic solubility (pH = 7.4), PBS, 37 °C, 24 h, mean of two): 27 µM (≈ 13.8 µg/mL) |
| Cc1[nH]c(C(=O)Nc2nc3c(N4CCOC4=O)cc(C(=O)O)cc3s2)c(Cl)c1Cl [7m, 2-(3,4-Dichloro-5-methyl-1H-pyrrole-2-carboxamido)-4-(2-oxooxazolidin-3-yl)benzo[d]thiazole-6-carboxylic Acid] | < 10 nM |  |  | > 64 µg/mL | > 64 µg/mL | 64 µg/mL | 64 µg/mL | 4 µg/mL | > 64 µg/mL | 4 µg/mL | > 64 µg/mL | 32 µg/mL | > 64 µg/mL | 64 µg/mL | 64 µg/mL | 8 µg/mL | 180 ± 16 nM | MIC [7]: 4 µg/mL |
| Cc1[nH]c(C(=O)Nc2nc3c(N4CC[S+]([O-])CC4)cc(C(=O)O)cc3s2)c(Cl)c1Cl [7s, 2-(3,4-Dichloro-5-methyl-1H-pyrrole-2-carboxamido)-4-(1-oxidothiomorpholino)benzo[d]thiazole-6-carboxylic Acid] | < 10 nM | < 100 nM | 72 ± 3 nM | > 64 µg/mL | > 64 µg/mL | > 64 µg/mL | > 64 µg/mL | 16 µg/mL | > 64 µg/mL | 16 µg/mL | > 64 µg/mL | 32 µg/mL | > 64 µg/mL | 64 µg/mL | 64 µg/mL | > 64 µg/mL |  |  |
| Cc1[nH]c(C(=O)Nc2nc3c(N4CCCC4)cc(C(=O)O)cc3s2)c(Cl)c1Cl [7j, 2-(3,4-Dichloro-5-methyl-1H-pyrrole-2-carboxamido)-4-(pyrrolidin-1-yl)benzo[d]thiazole-6-carboxylic Acid] | < 10 nM |  |  | 4 µg/mL | 4 µg/mL | 0.25 µg/mL | 0.25 µg/mL | 0.125 µg/mL | 16 µg/mL | 0.25 µg/mL | > 32 µg/mL | 8 µg/mL | 4 µg/mL | 0.125 µg/mL | 0.125 µg/mL | 0.0625 µg/mL | 68 ± 16 nM | IC50 ([2]; read-out: IC50): < 100 nM |
